The Ki is the dissociation constant of the complex between target and ligand, obtained from inhibition or displacement. A low value points to higher affinity.

The target in experiment [1] is T1, hM2 muscarinic receptor subtype (Homo sapiens, UniProt P08172).
T1 construct: expressed in transfected cells; membrane preparation
T1 sequence (P08172 1-466): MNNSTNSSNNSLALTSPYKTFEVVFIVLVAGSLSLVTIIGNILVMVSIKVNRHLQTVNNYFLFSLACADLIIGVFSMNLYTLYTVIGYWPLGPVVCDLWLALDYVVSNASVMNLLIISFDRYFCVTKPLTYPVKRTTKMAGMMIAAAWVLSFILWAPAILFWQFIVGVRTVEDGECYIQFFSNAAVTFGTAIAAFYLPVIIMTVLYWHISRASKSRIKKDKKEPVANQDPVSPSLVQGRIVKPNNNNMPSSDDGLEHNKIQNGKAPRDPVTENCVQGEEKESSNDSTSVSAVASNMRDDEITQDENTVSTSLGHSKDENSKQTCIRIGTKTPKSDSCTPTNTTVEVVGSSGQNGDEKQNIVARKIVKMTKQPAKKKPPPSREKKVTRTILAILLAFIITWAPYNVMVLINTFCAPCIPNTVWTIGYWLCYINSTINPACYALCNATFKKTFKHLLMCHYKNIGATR
The experiment can be described thus: Radioligand binding assay ([3H]NMS displacement), hM2. The following applies: [3H]NMS at 1 nM; membranes of CHO cells expressing hM2. The method, then:
(§1) A. Membrane Preparation from Cells Expressing hM1, hM2, hM3 and hM4 Muscarnic Receptor Subtypes
(§2) CHO (Chinese hamster ovary) cell lines stably expressing cloned human hM1, hM2, hM3 and hM4 muscarinic receptor subtypes, respectively, were grown to near confluency in medium consisting of HAM's F-12 supplemented with 10% FBS (Fetal Bovine Serum) and 250 μg/mL Geneticin. The cells were grown in a 5% CO2, 37° C. incubator and lifted with dPBS+2 mM EDTA. Cells were collected by 5 minute centrifugation at 650×g, and cell pellets were either stored frozen at −80° C. or membranes were prepared immediately. […] Protein concentration of the membrane suspension was determined by the method of Lowry, O. et al., (1951) Journal of Biochemistry: 193, 265. […]
(§3) Radioligand binding assays were performed in 96-well microtiter plates in a total assay volume of 100 μL. […] Filter plates were rinsed three times with wash buffer (10 mM HEPES) to remove unbound radioactivity. […] The plates were then counted in a PerkinElmer Topcount liquid scintillation counter (PerkinElmer Inc., Wellesley, Mass.). Binding data were analyzed by nonlinear regression analysis with the GraphPad Prism Software package (GraphPad Software, Inc., San Diego, Calif.) using the one-site competition model. […]

Experiment [2] addresses T2, hM3 muscarinic receptor subtype (Homo sapiens, UniProt P20309).
T2 construct: expressed in transfected cells; membrane preparation
The experiment can be described thus: Radioligand binding assay ([3H]NMS displacement), hM3. The following applies: ratio of Ki values. The procedure: as §1, §2, §3

The next experiment deals with T3, hM2 receptor (Homo sapiens, UniProt P08172).
T3 construct: expressed in transfected cells; membrane preparation
T3 sequence (P08172 1-466): T1 sequence (P08172 1-466)
The experiment can be described thus: Blockade of agonist-mediated GTPγ[35S] binding. The experiment is classed as biochemical. The following applies: CHO-K1 cell membranes expressing hM2; carbachol at EC90. The procedure: A. Blockade of Agonist-Mediated GTPγ[^35S] Binding
In this assay, the functional potency of a test compound was determined by measuring the ability of the test compound to block carbachol-stimulated GTPγ[^35S] binding in CHO-K1 cells expressing the hM2 receptor.
CHO-K1 cells stably expressing the hM2 muscarinic receptor were grown in medium consisting of Hams F-12 media supplemented with 10% Fetal Bovine Serum and 500 μg/ml of Geneticin (G-418). Cells were incubated in a 5% CO2, humidified incubator at 37° C. Cells were grown to confluence and harvested with dPBS+2 mM EDTA and pelleted by centrifugation at 250×g for 10 minutes.
Cells from the centrifuged pellets were resuspended in homogenization buffer (10 mM HEPES, 10 mM EDTA, pH 7 at 4° C.). […]
To determine the ability of a test compound to inhibit carbachol-stimulated GTPγ[^35S] binding, the following was added to each well of 96 well plates: 25 μL of assay buffer with GTPγ[^35S] and GDP, 25 μL of diluted test compound (prepared as described above), and 25 μL CHO cell membranes expressing the hM2 receptor. […] After the pre-incubation period, 25 μL of carbachol at the final concentration of its EC90 value determined earlier in the day was added to each plate. […]
Test compound potency (IC50) was determined using iterative curve fitting (GraphPad Prism 3.0 software; single site competition curve). […]
Background: GTPγS is a poorly hydrolysed GTP analogue; its binding reports G protein activation.

The test system of experiment [3] is volume-induced bladder contraction amplitude (VIBCAmp). The experiment in a line: In vivo rat bladder assay. The settings on record: anesthetized female Sprague-Dawley rats; intravenous; normalized to atropine response. The procedure:
Female Sprague-Dawley rats (Harlan, Indianapolis, Ind.) weighing 200 to 300 g were anesthetized with urethane (1.5 g/kg, s.c., Sigma, St. Louis, Mo.), with a supplement of 0.25 g/kg, s.c. urethane as needed. Urethane was administered at a concentration of 0.25 g/mL.
Rats were prepared for surgery by shaving the neck and abdomen and cleansing with ethanol wipes. First, an incision was made on the ventral surface. An intravenous catheter was placed by isolating and ligating the femoral vein. […]
Thereafter, an intravenous dose of the test compound was administered and changes in VIBCAmp were recorded for 15 minutes. Atropine (0.1 mg/kg) was then administered intravenously (1 mL/kg) as a positive control and VIBCAmp and data was recorded for an additional 15 minutes. […]
Alternatively, after the vehicle, increasing cumulative intravenous doses of the test compound were administered at 15 minute intervals (1 mL/kg) and changes in VIBCAmp were recorded for 15 minutes. […]
The average VIBCAmp during the 5-15 minute period after test compound and atropine was determined and subtracted from the average VIBCAmp during the 5-15 minute post-vehicle period to obtain the test compound or atropine-induced change in VIBCAmp. […]

The test system of experiment [4] is oxotremorine-induced salivation. The experiment can be described thus: In vivo rat salivation assay. The following applies: for ID50 bladder/salivation selectivity ratio: comparison of ID50 values of rat bladder assay and rat salivation assay. The method, then:
Female Sprague-Dawley rats weighing 200 to 300 g were anesthetized with urethane (1.5 g/kg, s.c., Sigma, St. Louis, Mo.), with a supplement of 0.25 g/kg, s.c. urethane as needed. Urethane was administered at a concentration of 0.25 g/mL.
Rats were placed on a heated blanket on their dorsal side in an inclined position (20° angle) position (head down). A swab was placed in the rat's mouth. The test compound or vehicle was administered intravenously via the tail vein. After 5 min., oxotremorine (1.0 mg/kg) was administered subcutaneously. The swab was discarded and replaced by a pre-weighed swab. Saliva was then collected for 10 min. and then the swab was removed and re-weighed to determine the output of saliva. Dose-response curves were fitted with a four parameter logistic equation to obtain estimates of ID50 (dose required to produce 50% of the maximal response).
By comparing the ID50 values determined in the rat bladder assay and rat salivation assay, the in vivo bladder/salivation selectivity ratio was calculated for the compounds tested.

Molecules are shown by their SMILES.

T2 sequence (P20309 whole entry): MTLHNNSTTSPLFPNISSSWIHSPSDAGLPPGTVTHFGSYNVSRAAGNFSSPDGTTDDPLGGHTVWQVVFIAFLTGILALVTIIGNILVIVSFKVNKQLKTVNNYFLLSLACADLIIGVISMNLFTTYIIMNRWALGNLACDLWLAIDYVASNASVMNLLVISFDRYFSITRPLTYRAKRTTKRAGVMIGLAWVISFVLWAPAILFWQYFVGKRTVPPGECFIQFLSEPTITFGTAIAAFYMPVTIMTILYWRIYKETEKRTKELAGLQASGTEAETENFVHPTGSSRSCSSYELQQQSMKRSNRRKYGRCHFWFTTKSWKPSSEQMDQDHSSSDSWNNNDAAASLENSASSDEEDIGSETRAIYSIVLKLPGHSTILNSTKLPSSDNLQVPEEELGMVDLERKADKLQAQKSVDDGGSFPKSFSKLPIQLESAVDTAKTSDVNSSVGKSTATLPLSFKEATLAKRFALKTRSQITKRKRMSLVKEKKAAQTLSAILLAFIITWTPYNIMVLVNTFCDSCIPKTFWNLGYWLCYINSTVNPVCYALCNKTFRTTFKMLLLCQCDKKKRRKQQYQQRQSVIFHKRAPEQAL

As for `COc1cccc(OC)c1CN1CCC(N(C)CCCCOCCCCN2CC[C@@H](C(C(N)=O)(c3ccccc3)c3ccccc3)C2)CC1` [Example 4], the Ki in experiment [1] was less than 20 nM; on hM2 receptor it was less than 10 nM. In addition, the hM3/hM2 ratio result in experiment [2] is “greater than or equal to 5”. For the same compound, the “ID50 (rat bladder assay)” value in experiment [3] is “less than or equal to 0.1 mg/kg”. Besides, the “ID50 (rat salivation assay)” value in experiment [4] (anesthetized female Sprague-Dawley rats, intravenous, oxotremorine 1.0 mg/kg s.c.) is “greater than or equal to 1 mg/kg”. For the same compound, the “ID50 bladder/salivation selectivity ratio” value in experiment [4] is reported as “greater than 10”.

`CCN(CC)CC#CCOC(=O)C(O)(c1ccccc1)C1CCCCC1` (centres unmarked) [oxybutynin, reference compound]: in experiment [4], the “ID50 bladder/salivation selectivity ratio” value is on record as “about 1.4”.

As for `Cc1ccc(O)c([C@H](CCN(C(C)C)C(C)C)c2ccccc2)c1` [tolterodine, reference compound], the “ID50 bladder/salivation selectivity ratio” value in experiment [4] is given as roughly 4.8.
